According to patent US6235284A, “Synthetic polypeptides belonging to the hepatitis C virus (HCV) and which can be used especially for detecting the latter” (Bio Merieux, priority 1992, dated 2001):

What was measured:
[1] = tested on: anti-HCV antibodies (HCV-positive sera); test: ELISA detection of anti-HCV antibodies in HCV-positive sera with adsorbed peptides; type: binding, human
Method: The reactivity of these three peptides towards the sera of individuals infected with the hepatitis C virus, termed (HCV) positive, was evaluated in an ELISA test according to the procedure described below.
Detection of anti-HCV Antibodies by ELISA
The wells of a microtiter plate of "NUNC MAXISORB™" trademark are saturated with 100 μl of a solution containing the peptide or a mixture of peptides (10 μg/ml) for 2 hours at 37° C. The plate is then emptied, then washed with a wash buffer containing 0.05% TWEEN™ 20(polysorbate 20). The wells are saturated with 100 μl of wash buffer supplemented with 10% goat serum (v/v), then incubated for 30 minutes at 37° C., then washed again as above. The sera to be analyzed are diluted to the appropriate dilution with saturation buffer. The incubation of the sera is 1 hour at 37° C. The wells are again washed. The solution of conjugate (goat IgG to human IgG labelled with peroxidase) at a dilution of 1/1000 in the saturation buffer is then added and the incubation lasts for 90 minutes at 37° C. After washing, the solution of orthophenylenediamine substrate is added. After 10 minutes, the reaction is stopped with 50 μl of H2 SO4 and the optical density is read at 492 nm. It should be noted that all the tests were carried out in duplicate.
For that, the different peptides are adsorbed on the microplates at a concentration of 10 μg/ml and the sera are used at 1/100 dilution.
The values obtained, which are collated in Table 1 below, correspond to the optical density (OD) multiplied by 10^3, at 492 nm.
For each serum the experiment was carried out in duplicate. The **** are values outside the upper scale.
The different peptides are absorbed onto microplates at a concentration of 10 μg/ml and the sera are used at the dilution stated.
The values obtained, which are collated in Table 2 below, correspond to the optical density at 492 nm. All the experiments were carried out in duplicate.
Each serum was, in a first instance, tested at the dilution 1/100.
The values given correspond to the optical density read at 492 nm multiplied by the factor 10^3.

[2] = tested on: anti-HCV antibodies binding onto peptide S42G; test: Inhibition test: inhibition of binding of anti-HCV antibodies onto peptide S42G by preincubation with peptides; design: species or system human; settings: inhibitor 0.1 mg/ml
Method: To evaluate this hypothesis, inhibition tests, whose usefulness lies in the fact that they allow the formation of the antigen-antibody complex in liquid medium, were carried out, thus dispensing with possible artifacts linked to the adsorption of peptides onto a solid support.
The inhibition experiments were carried out by reaction, in liquid phase, of the HCV sera with the peptides followed by reaction of the remaining antibodies with the peptide adsorbed onto the microplates. The inhibitory peptides are incubated at a concentration of 0.1 mg/ml with sera of appropriate dilution. The rest of the manipulation is identical to that described for the ELISA test.
Peptide S18D (SEQ ID NO:11), or V22G (SEQ ID NO:12), or a mixture of both, is preincubated overnight in the presence of the serum to be tested. The antibodies can bind onto the corresponding sites.

S18D: a peptide of 20 amino acids covering sequence 2 to 21 of the CORE protein (STNPKPQRKTKRNTNRRPQD)
optical density at 492 nm ([1]; Table 2, line 68, serum not named (below CTS), 1/100): 2.500 OD | optical density at 492 nm ([1]; Table 2, line 69, serum not named (below CTS), 1/1000): 2.500 OD | optical density at 492 nm ([1]; Table 2, line 70, serum not named (below CTS), 1/10000): 0.347 OD | optical density at 492 nm ([1]; Table 2, line 75, serum B4, 1/1000): 1.250 OD | optical density at 492 nm ([1]; Table 2, line 76, serum B4, 1/1000 (so in the source)): 0.171 OD | optical density at 492 nm ([1]; Table 2, serum B1, 1/100): 1.859 OD | optical density at 492 nm ([1]; Table 2, serum B2, 1/100): 1.781 OD | optical density at 492 nm ([1]; Table 2, serum B3, 1/100): 1.244 OD | optical density at 492 nm ([1]; Table 2, serum B4, 1/100): 2.500 OD | optical density at 492 nm ([1]; Table 2, serum B5, 1/100): 2.032 OD | optical density at 492 nm ([1]; Table 2, serum B6, 1/100): 2.500 OD | optical density at 492 nm ([1]; Table 2, serum B7, 1/100): 2.500 OD | optical density at 492 nm ([1]; Table 2, serum B8, 1/100): 1.362 OD | optical density at 492 nm ([1]; Table 2, serum B9, 1/100): 0.808 OD | optical density at 492 nm ([1]; Table 2, serum B10, 1/100): 0.099 OD | optical density at 492 nm ([1]; Table 2, serum B11, 1/100): 2.324 OD | optical density at 492 nm ([1]; Table 2, serum B12, 1/100): 1.375 OD | optical density at 492 nm ([1]; Table 2, serum B13, 1/100): 0.370 OD | optical density at 492 nm ([1]; Table 2, serum B14, 1/100): 0.072 OD | optical density at 492 nm ([1]; Table 2, serum B15, 1/100): 0.090 OD | optical density at 492 nm ([1]; Table 2, serum B16, 1/100): 2.500 OD | optical density at 492 nm ([1]; Table 2, serum CTS, 1/100): 2.500 OD | optical density at 492 nm ([1]; Table 2, serum CTS, 1/1000): 2.500 OD | optical density at 492 nm ([1]; Table 2, serum CTS, 1/10000): 0.295 OD | optical density at 492 nm ([1]; Table 2, serum P1, 1/100): 0.012 OD | optical density at 492 nm ([1]; Table 2, serum P2, 1/100): 0.020 OD | optical density at 492 nm ([1]; Table 2, serum P3, 1/100): 0.162 OD | optical density at 492 nm ([1]; Table 2, serum P4, 1/100): 0.982 OD | optical density at 492 nm ([1]; Table 2, serum P5, 1/100): 2.500 OD | optical density at 492 nm ([1]; Table 2, serum P5, 1/1000): 2.317 OD | optical density at 492 nm ([1]; Table 2, serum P5, 1/10000): 0.399 OD | optical density at 492 nm ([1]; Table 2, serum P6, 1/100): 0.007 OD | optical density at 492 nm ([1]; Table 2, serum P7, 1/100): 2.500 OD | optical density at 492 nm ([1]; Table 2, serum P7, 1/1000): 0.854 OD | optical density at 492 nm ([1]; Table 2, serum P7, 1/10000): 0.165 OD | optical density at 492 nm ([1]; Table 2, serum P8, 1/100): 2.500 OD | optical density at 492 nm ([1]; Table 2, serum P8, 1/1000): 2.500 OD | optical density at 492 nm ([1]; Table 2, serum P8, 1/10000): 0.681 OD | optical density at 492 nm ([1]; Table 2, serum P9, 1/100): 0.019 OD | optical density at 492 nm ([1]; Table 2, serum P10, 1/100): 0.028 OD | optical density at 492 nm ([1]; Table 2, serum P11, 1/100): 0.383 OD | optical density at 492 nm ([1]; Table 2, serum P12, 1/100): 2.500 OD | optical density at 492 nm ([1]; Table 2, serum P12, 1/1000): 2.500 OD | optical density at 492 nm ([1]; Table 2, serum P12, 1/10000): 0.454 OD | optical density at 492 nm ([1]; Table 2, serum P13, 1/100): 0.012 OD | optical density at 492 nm ([1]; Table 2, serum P14, 1/100): 0.907 OD | optical density at 492 nm ([1]; Table 2, serum P15, 1/100): 2.500 OD | optical density at 492 nm ([1]; Table 2, serum P16, 1/100): 0.225 OD | optical density at 492 nm ([1]; Table 2, serum P17, 1/100): 0.297 OD | optical density at 492 nm ([1]; Table 2, serum P18, 1/100): 2.500 OD | optical density at 492 nm ([1]; Table 2, serum P18, 1/1000): 0.297 OD | optical density at 492 nm ([1]; Table 2, serum P18, 1/10000): 0.095 OD | optical density at 492 nm ([1]; Table 2, serum P19, 1/100): 0.011 OD | optical density at 492 nm ([1]; Table 2, serum P20, 1/100): 1.433 OD | optical density at 492 nm ([1]; Table 2, serum P21, 1/100): 0.111 OD | optical density at 492 nm ([1]; Table 2, serum P22, 1/100): 2.500 OD | optical density at 492 nm ([1]; Table 2, serum P22, 1/1000): 1.142 OD | optical density at 492 nm ([1]; Table 2, serum P22, 1/10000): 0.146 OD | optical density at 492 nm ([1]; Table 2, serum P23, 1/100): 0.015 OD | optical density at 492 nm ([1]; Table 2, serum P24, 1/100): 0.015 OD | optical density at 492 nm ([1]; Table 2, serum P25, 1/100): 2.500 OD | optical density at 492 nm ([1]; Table 2, serum P25, 1/1000): 2.199 OD | optical density at 492 nm ([1]; Table 2, serum P25, 1/10000): 0.329 OD | optical density at 492 nm ([1]; Table 2, serum P26, 1/100): 2.500 OD | optical density at 492 nm ([1]; Table 2, serum P26, 1/1000): 2.500 OD | optical density at 492 nm ([1]; Table 2, serum P26, 1/10000): 0.957 OD | optical density at 492 nm ([1]; Table 2, serum P27, 1/100): 1.425 OD | optical density at 492 nm ([1]; Table 2, serum P28, 1/100): 0.115 OD | optical density at 492 nm ([1]; Table 2, serum P29, 1/100): 0.000 OD | optical density at 492 nm ([1]; Table 2, serum P30, 1/100): 0.483 OD | optical density at 492 nm ([1]; Table 2, serum P31, 1/100): 2.500 OD | optical density at 492 nm ([1]; Table 2, serum P31, 1/1000): 1.975 OD | optical density at 492 nm ([1]; Table 2, serum P31, 1/10000): 0.183 OD | optical density at 492 nm ([1]; Table 2, serum P32, 1/100): 1.046 OD | optical density at 492 nm ([1]; Table 2, serum P33, 1/100): 1.307 OD | optical density at 492 nm ([1]; Table 2, serum P34, 1/100): 2.500 OD | optical density at 492 nm ([1]; Table 2, serum P35, 1/100): 2.500 OD | optical density at 492 nm ([1]; Table 2, serum P36, 1/100): 0.115 OD | optical density at 492 nm ([1]; Table 2, serum P37, 1/100): 2.500 OD | optical density at 492 nm ([1]; Table 2, serum P37, 1/1000): 0.523 OD | optical density at 492 nm ([1]; Table 2, serum P37, 1/10000): 0.102 OD | optical density at 492 nm ([1]; Table 2, serum P38, 1/100): 2.500 OD | optical density at 492 nm ([1]; Table 2, serum P38, 1/1000): 0.753 OD | optical density at 492 nm ([1]; Table 2, serum P38, 1/10000): 0.099 OD | optical density at 492 nm ([1]; Table 2, serum P39, 1/100): 2.500 OD | optical density at 492 nm ([1]; Table 2, serum P40, 1/100): 2.500 OD | optical density at 492 nm ([1]; Table 2, serum P41, 1/100): 1.579 OD | optical density at 492 nm ([1]; Table 2, serum P42, 1/100): 0.000 OD | reactivity towards HCV-positive sera ([1]; in words): react | inhibition ([2]; serum B4, 1/10,000): 16.8% | inhibition ([2]; serum P5, 1/10,000): 3.5% | inhibition ([2]; serum P7, 1/10,000): 8.4% | inhibition ([2]; serum P8, 1/10,000): 1.4% | inhibition ([2]; serum P18, 1/10,000): 10.6% | inhibition ([2]; serum P22, 1/10,000): 6.6% | inhibition ([2]; serum P25, 1/10,000): 14.1% | inhibition ([2]; serum P31, 1/10,000): 2.0% | inhibition ([2]; serum P37, 1/10,000): 43.6% | inhibition ([2]; serum P38, 1/10,000): 8.9%
